Assay results taken from patent US20250049970A1, “DLL3 TARGETING PEPTIDES AND CONSTRUCTS THEREOF” (MARIANA ONCOLOGY INC., priority 2023, published 2025).
pKd: −log10 of the molar value. *1 amine or outer side, *2 acyl side, *3 side chain or, on linkers, in order; H or OH if unused. Where a SMILES comes first, the peptide text is derived from it. Bridges are numbered along the chain shown (N, C = ends). [ ]: non-standard residue; d: D form. The star is where a group is joined. X9 = CSCC[C@H](NC(=O)c1ccc(CNC(=O)CN2CCN(CC(=O)O)CCN(CC(=O)O)CCN(CC(=O)O)CC2)cc1)C(=O)N[C@H](C(=O)N[C@@H](CCCCN*)C(=O)O)C(C)C; X7 = O=C(O)CN1CCN(CC(=O)O)CCN(CC(=O)N[C@H]2CC[C@H](CC(=O)*)CC2)CCN(CC(=O)O)CC1; Ala(piperidin-4-yl) = O=C([C@H](CC1CCN([*:3])CC1)N[*:1])[*:2]; DOTA = O=C(O)CN1CCN(CC(=O)O)CCN(CC(=O)*)CCN(CC(=O)O)CC1; Trp(7-OMe) = COc1cccc2c(C[C@H](N)C(=O)O)c[nH]c12; Trp(7-Me) = Cc1cccc2c(C[C@H](N)C(=O)O)c[nH]c12; Bip = N[C@@H](Cc1ccc(-c2ccccc2)cc1)C(=O)O; 1Nal = N[C@@H](Cc1cccc2ccccc12)C(=O)O; 2Nal = N[C@@H](Cc1ccc2ccccc2c1)C(=O)O; Gly(4-THP) = N[C@H](C(=O)O)C1CCOCC1; NMeT = CN[C@H](C(=O)O)[C@@H](C)O; Chg = N[C@H](C(=O)O)C1CCCCC1; NMeNle = CCCC[C@H](NC)C(=O)O; CH2 = C([*:1])[*:2]

The compounds below were run against T1, DLL3 (Homo sapiens, UniProt Q9NYJ7) (assay: SPR KD, biotinylated human DLL3 on streptavidin chip (Table 8)). Settings: biotinylated human DLL3 on streptavidin sensor chip, 25° C., 1:1 binding model; read-out: SPR KD.
T1 sequence (Q9NYJ7 27-618): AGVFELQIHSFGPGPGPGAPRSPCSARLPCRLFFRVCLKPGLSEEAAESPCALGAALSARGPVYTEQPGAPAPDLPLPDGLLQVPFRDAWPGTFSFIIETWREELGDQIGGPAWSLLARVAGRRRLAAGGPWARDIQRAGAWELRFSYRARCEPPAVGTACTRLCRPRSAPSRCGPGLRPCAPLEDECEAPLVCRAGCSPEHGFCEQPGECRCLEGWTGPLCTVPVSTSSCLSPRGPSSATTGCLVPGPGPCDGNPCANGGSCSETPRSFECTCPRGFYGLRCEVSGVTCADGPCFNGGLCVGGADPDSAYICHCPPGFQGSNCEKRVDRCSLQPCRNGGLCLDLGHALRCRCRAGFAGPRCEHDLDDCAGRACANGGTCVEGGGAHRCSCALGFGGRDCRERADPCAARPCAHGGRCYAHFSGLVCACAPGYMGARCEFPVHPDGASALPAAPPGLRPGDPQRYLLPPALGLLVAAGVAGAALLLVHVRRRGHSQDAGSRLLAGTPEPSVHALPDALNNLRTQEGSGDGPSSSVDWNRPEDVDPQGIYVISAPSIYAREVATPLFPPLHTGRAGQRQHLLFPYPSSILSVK
Design: biotin (biotinylated)
Excerpt: Biotinylated target ligand human DLL3 was immobilized on a streptavidin sensor chip. A reference surface was set up for nonspecific binding and refractive index changes. […] Sensorgram curves were fitted with 1:1 binding model, and affinity and kinetic parameters were obtained using Biacore Insight evaluation 4.0. software.

pKd	Structure (SMILES)
> 9.00	CC(=O)N[C@@H](Cc1c[nH]c2c(C)cccc12)C(=O)N[C@H](C(=O)N[C@H](C(=O)N[C@H]1CSCSC[C@@H](C(=O)N[C@@H](Cc2c[nH]c3ccccc23)C(=O)N2CCC[C@H]2C(N)=O)NC(=O)[C@H](CC(=O)O)NC(=O)[C@H](CCCCNC(=O)CN2CCN(CC(=O)O)CCN(CC(=O)O)CCN(CC(=O)O)CC2)NC(=O)[C@H](Cc2ccc3ccccc3c2)NC(=O)[C@H](CC(N)=O)NC(=O)[C@H](CC2CCNCC2)NC1=O)C1CCCCC1)[C@@H](C)O [compound 428, Ac-(7Me-Trp)-T-(Chg)-C(1)-[3-(4-piperidinyl)-Ala]-N-(2Nal)-Lys(DOTA)-D-C(1)-W-P-NH2] (Ac-[Trp(7-Me)]T[Chg]C[Ala(piperidin-4-yl)]N[2Nal]K(DOTA)DCWP-NH2; linker 4-10 via CH2)
> 9.00	CC(=O)N[C@@H](Cc1c[nH]c2ccccc12)C(=O)N[C@H](C(=O)N[C@H](C(=O)N[C@H]1CSSC[C@@H](C(=O)N[C@@H](Cc2c[nH]c3ccccc23)C(=O)N2CCC[C@H]2C(N)=O)NC(=O)[C@H](CC(=O)O)NC(=O)[C@H](CCCCNC(=O)C[C@H]2CC[C@H](NC(=O)CN3CCN(CC(=O)O)CCN(CC(=O)O)CCN(CC(=O)O)CC3)CC2)NC(=O)[C@H](Cc2ccc3ccccc3c2)NC(=O)[C@H](CC(N)=O)NC(=O)[C@H](CC2CCNCC2)NC1=O)C1CCCCC1)[C@@H](C)O [compound 379, Ac-W-T-(Chg)-C(3)-[3-(4-piperidinyl)-Ala]-N-(2Nal)-Lys(Chx-DOTA)-D-C(3)-W-P-CONH2] (Ac-WT[Chg]C[Ala(piperidin-4-yl)]N[2Nal]K(X7)DCWP-NH2; disulfide 4-10)
6.52 to 7.00	CC[C@H](C)[C@H](NC(=O)[C@H]([C@@H](C)O)N(C)C(=O)[C@H](Cc1c[nH]c2ccccc12)NC(C)=O)C(=O)N[C@H]1CSSC[C@@H](C(=O)N[C@@H](Cc2c[nH]c3ccccc23)C(=O)N2CCC[C@H]2C(N)=O)NC(=O)[C@H](CC(=O)O)NC(=O)[C@H](Cc2cnc[nH]2)NC(=O)[C@H](Cc2c[nH]c3ccccc23)NC(=O)[C@H](CC(N)=O)NC(=O)[C@H](CC(N)=O)NC1=O [compound 383, Ac-W-(NmeT)-I-C(3)-N-N-W-H-D-C(3)-W-P-CONH2] (Ac-W[NMeT]ICNNWHDCWP-NH2; disulfide 4-10)
7.00 to 8.00	CC[C@H](C)[C@H](NC(=O)[C@@H](NC(=O)[C@H](Cc1cccc2ccccc12)NC(C)=O)[C@@H](C)O)C(=O)N[C@H]1CSSC[C@@H](C(=O)N[C@@H](Cc2c[nH]c3ccccc23)C(=O)N2CCC[C@H]2C(N)=O)NC(=O)[C@H](CC(=O)O)NC(=O)[C@H](Cc2cnc[nH]2)NC(=O)[C@H](Cc2c[nH]c3ccccc23)NC(=O)[C@H](CC(N)=O)NC(=O)[C@H](CC(N)=O)NC1=O [compound 25, Ac-(1Nal)-T-I-C(3)-N-N-W-H-D-C(3)-W-P-CONH2] (Ac-[1Nal]TICNNWHDCWP-NH2; disulfide 4-10)
7.00 to 8.00	CC[C@H](C)[C@H](NC(=O)[C@@H](NC(=O)[C@H](Cc1c[nH]c2ccccc12)NC(=O)[C@H](CCSC)NC(C)=O)[C@@H](C)O)C(=O)N[C@H]1CSSC[C@@H](C(=O)N[C@@H](Cc2c[nH]c3ccccc23)C(=O)N2CCC[C@H]2C(N)=O)NC(=O)[C@H](CC(=O)O)NC(=O)[C@H](Cc2cnc[nH]2)NC(=O)[C@H](Cc2c[nH]c3ccccc23)NC(=O)[C@H](C)NC(=O)[C@H](CC(N)=O)NC1=O [compound 38, Ac-M-W-T-I-C(3)-N-(L-Ala)-W-H-D-C(3)-W-P-CONH2] (Ac-MWTICNAWHDCWP-NH2; disulfide 5-11)
7.00 to 8.00	CC[C@H](C)[C@H](NC(=O)[C@@H](NC(=O)[C@H](Cc1c[nH]c2ccccc12)NC(=O)[C@H](CCSC)NC(C)=O)[C@@H](C)O)C(=O)N[C@H]1CSSC[C@@H](C(=O)N[C@@H](Cc2c[nH]c3ccccc23)C(=O)N2CCC[C@H]2C(N)=O)NC(=O)[C@H](CC(=O)O)NC(=O)[C@H](C)NC(=O)[C@H](Cc2c[nH]c3ccccc23)NC(=O)[C@H](CC(N)=O)NC(=O)[C@H](CC(N)=O)NC1=O [compound 36, Ac-M-W-T-I-C(3)-N-N-W-(L-Ala)-D-C(3)-W-P-CONH2] (Ac-MWTICNNWADCWP-NH2; disulfide 5-11)
6.52 to 7.00	CC[C@H](C)[C@H](NC(=O)[C@@H](NC(=O)[C@H](Cc1ccc(-c2ccccc2)cc1)NC(C)=O)[C@@H](C)O)C(=O)N[C@H]1CSSC[C@@H](C(=O)N[C@@H](Cc2c[nH]c3ccccc23)C(=O)N2CCC[C@H]2C(=O)O)NC(=O)[C@H](CC(=O)O)NC(=O)[C@H](Cc2c[nH]cn2)NC(=O)[C@H](Cc2c[nH]c3ccccc23)NC(=O)[C@H](CC(N)=O)NC(=O)[C@H](CC(N)=O)NC1=O [compound 333, Ac-(BIP)-T-I-C(3)-N-N-W-H-D-C(3)-W-P-CONH2] (Ac-[Bip]TICNNWHDCWP-OH; disulfide 4-10)
8.00 to 9.00	CSCC[C@H](NC(=O)c1ccc(CNC(=O)CN2CCN(CC(=O)O)CCN(CC(=O)O)CCN(CC(=O)O)CC2)cc1)C(=O)N[C@H](C(=O)N[C@@H](CCCCNC(=O)CC[C@@H]1NC(=O)[C@H](Cc2ccc3ccccc3c2)NC(=O)[C@H](CC(N)=O)NC(=O)[C@H](CC2CCNCC2)NC(=O)[C@@H](NC(=O)[C@@H](NC(=O)[C@@H](NC(=O)[C@H](Cc2c[nH]c3ccccc23)NC(C)=O)[C@@H](C)O)C2CCOCC2)CSSC[C@@H](C(=O)N[C@@H](Cc2c[nH]c3ccccc23)C(=O)N2CCC[C@H]2C(N)=O)NC(=O)[C@H](CC(=O)O)NC1=O)C(=O)O)C(C)C [compound 378, Ac-W-T-(THPG)-C(3)-[3-(4-piperidinyl)-Ala]-N-(2Nal)-[Glu(gLys(OH)-Val-Met-AmBz-DOTA)]-D-C(3)-W-P-CONH2] (Ac-WT[Gly(4-THP)]C[Ala(piperidin-4-yl)]N[2Nal]E(X9)DCWP-NH2; disulfide 4-10)
8.00 to 9.00	CC[C@H](C)[C@H](NC(=O)[C@@H](NC(=O)[C@H](Cc1c[nH]c2ccccc12)NC(=O)[C@H](CCSC)NC(C)=O)[C@@H](C)O)C(=O)N[C@H]1CSSC[C@@H](C(=O)N[C@@H](Cc2c[nH]c3ccccc23)C(=O)N2CCC[C@H]2C(N)=O)NC(=O)[C@H](CC(=O)O)NC(=O)[C@H](Cc2cnc[nH]2)NC(=O)[C@H](Cc2c[nH]c3ccccc23)NC(=O)[C@H](CC(N)=O)NC(=O)[C@H](CC(N)=O)NC1=O [compound 1] (Ac-MWTICNNWHDCWP-NH2; disulfide 5-11)
> 9.00	CC(=O)N[C@@H](Cc1c[nH]c2ccccc12)C(=O)N[C@H](C(=O)N[C@H](C(=O)N[C@H]1CSCSC[C@@H](C(=O)N[C@@H](Cc2c[nH]c3ccccc23)C(=O)N2CCC[C@H]2C(N)=O)NC(=O)[C@H](CC(=O)O)NC(=O)[C@H](CCCCNC(=O)CN2CCN(CC(=O)O)CCN(CC(=O)O)CCN(CC(=O)O)CC2)NC(=O)[C@H](Cc2ccc3ccccc3c2)NC(=O)[C@H](CC(N)=O)NC(=O)[C@H](CC2CCNCC2)NC1=O)C1CCCCC1)[C@@H](C)O [compound 398, Ac-W-T-(Chg)-C(1)-[3-(4-piperidinyl)-Ala]-N-(2Nal)-Lys(DOTA)-D-C(1)-W-P-CONH2] (Ac-WT[Chg]C[Ala(piperidin-4-yl)]N[2Nal]K(DOTA)DCWP-NH2; linker 4-10 via CH2)
> 9.00	CC(=O)N[C@@H](Cc1c[nH]c2ccccc12)C(=O)N[C@H](C(=O)N[C@H](C(=O)N[C@H]1CSSC[C@@H](C(=O)N[C@@H](Cc2c[nH]c3ccccc23)C(=O)N2CCC[C@H]2C(N)=O)NC(=O)[C@H](C)NC(=O)[C@@H](CCCCNC(=O)CN2CCN(CC(=O)O)CCN(CC(=O)O)CCN(CC(=O)O)CC2)NC(=O)[C@H](Cc2ccc3ccccc3c2)NC(=O)[C@H](CC(N)=O)NC(=O)[C@H](CC2CCNCC2)NC1=O)C1CCOCC1)[C@@H](C)O [compound 327, Ac-W-T-(THPG)-C(3)-[3-(4-piperidinyl)-Ala]-N-(2Nal)-Lys(DOTA)-(Ala)-C(3)-W-P-CONH2] (Ac-WT[Gly(4-THP)]C[Ala(piperidin-4-yl)]N[2Nal][dK](DOTA)ACWP-NH2; disulfide 4-10)
7.00 to 8.00	CC[C@H](C)[C@H](NC(=O)[C@@H](NC(=O)[C@H](Cc1c[nH]c2ccccc12)NC(C)=O)[C@@H](C)O)C(=O)N[C@H]1CSCSC[C@@H](C(=O)N[C@@H](Cc2c[nH]c3ccccc23)C(=O)N2CCC[C@H]2C(N)=O)NC(=O)[C@H](CC(=O)O)NC(=O)[C@H](Cc2cnc[nH]2)NC(=O)[C@H](Cc2c[nH]c3ccccc23)NC(=O)[C@H](CC(N)=O)NC(=O)[C@H](CC(N)=O)NC1=O [compound 343] (Ac-WTICNNWHDCWP-NH2; linker 4-10 via CH2)
> 9.00	CCCC[C@@H](C(=O)N[C@H]1CSSC[C@@H](C(=O)N[C@@H](Cc2c[nH]c3ccccc23)C(=O)N2CCC[C@H]2C(N)=O)NC(=O)[C@H](CC(=O)O)NC(=O)[C@H](CCCCNC(=O)CN2CCN(CC(=O)O)CCN(CC(=O)O)CCN(CC(=O)O)CC2)NC(=O)[C@H](Cc2ccc3ccccc3c2)NC(=O)[C@H](CC(N)=O)NC(=O)[C@H](CC2CCNCC2)NC1=O)N(C)C(=O)[C@@H](NC(=O)[C@H](Cc1c[nH]c2c(OC)cccc12)NC(C)=O)[C@@H](C)O [compound 422, Ac-(7MeO-Trp)-T-(NMe-Nle)-C(3)-[3-(4piperdinyl)-Ala]-N-(2Nal)-Lys(DOTA)-D-C(3)-W-P-CONH2] (Ac-[Trp(7-OMe)]T[NMeNle]C[Ala(piperidin-4-yl)]N[2Nal]K(DOTA)DCWP-NH2; disulfide 4-10)
